In test [1] the test system is sciatic nerve ligation-induced cold allodynia. Nature of the test: Sciatic nerve ligation-induced cold allodynia in mice (paw withdrawal latency from 0° C. water). In kind it is in vivo, male C57Bl/6 mice. The note with it: mouse, injured paw, days 3 and 7 after nerve ligation. As to the method:
(§1) On the 3rd and on the 7th day following the nerve ligation, the mechano-nociceptive thresholds were determined directly before and 15 min after i.p. drug administration to observe the difference between pre-injection and post-injection thresholds in mice. We determined the developing cold allodynia following the sciatic nerve ligation at Days 3 and 7. In rats we examined the developing mechanical allodynia just 7 days after the sciatic nerve ligation on the same way like in mice. Only animals with a minimum of 25% hyperalgesia/allodynia were included in the study (Seltzer et al., Pain., 1990, 43(2):205-18; Pintér et al., Naunyn Schmiedebergs Arch Pharmacol., 2002, 366(2):142-50.).
Mice were anaesthesized with a combination of ketamine and xylazine (100 mg/kg and 5 mg/kg i.p. respectively), but in rats Na-pentobarbital (40 mg/kg i.p) were used. […]
A noxious cold stimulus was applied by immersing one of the murine hindpaws in icy water, remaining the temperature steady at 0° C. Cold perception was assessed as the time taken by the animal to pulling out its paw from the cold water, the cut-off time was 180 seconds. […]
The paw withdrawal latency values were determined as % by comparing the latencies measured on day 3 and 7 after the operation to the mean initial latency values. […] Results are expressed as means±s.e.m of the withdrawal behaviour latency changes of n=6-6 mice per groups. […]

The test system of test [2] is sciatic nerve ligation-induced mechanical hyperalgesia. Nature of the test: Sciatic nerve ligation-induced traumatic mononeuropathy, mechanical hyperalgesia in mice (dynamic plantar aesthesiometry). It is filed as in vivo, male C57Bl/6 mice. Conditions: mouse, injured paw, single dose 20 mg/kg i.p., 15 minutes after administration, vs postoperative control values. How it is done:
(§2) The solutions were prepared freshly on the day of the experiment with sterile saline. SZV-1287 (prepared according to WO 2010/029379 A1) dissolved in saline and the solution was clear. The SZV-1911 (prepared according to WO2006/094201 and WO2005/014530) solution was prepared with Tween 80 and ethanol, stirred properly with a vortex, heated moderately to 42° C. and sonicated, but it was still opalescent. The i.p. administered volume was 0.2 ml/100 g body weight from 10 mg/ml in rats solution and 0.1 m/10 g body weight from 2 mg/ml solution to achieve the 20 mg/kg doses. The solvent of SZV-1911 was given to the vehicle-treated animals in the same volume.
Sciatic nerve ligation-induced traumatic mononeuropathy experiments were performed on male Wistar rats (250-300 g), and on male C57Bl/6 mice as well as resiniferatoxin- or formalin-induced hyperalgesia. […]
On the 3rd and on the 7th day following the nerve ligation, the mechano-nociceptive thresholds were determined directly before and 15 min after i.p. drug administration to observe the difference between pre-injection and post-injection thresholds in mice. We determined the developing cold allodynia following the sciatic nerve ligation at Days 3 and 7. […]
The mechanical touch sensitivity thresholds of the plantar surface of the paws was determined by aesthesiometry (Ugo Basile Dynamic Plantar Aesthesiometer 37400; Comerio, Italy). […]

Test [3] relates to sciatic nerve ligation-induced mechanical allodynia. The experiment in a line: Sciatic nerve ligation-induced traumatic mononeuropathy, mechanical allodynia in rats (dynamic plantar aesthesiometry). It is filed as in vivo, male Wistar rats. The note with it: for change of the mechanonociceptive thresholds, contralateral side of the operated rats / inhibitory effect on mechanical allodynia / mechanical allodynia (decrease of withdrawal threshold vs initial control) after drug injection: rat; for change of the mechanonociceptive thresholds, contralateral side of the operated rats: contralateral paw; for change of the mechanonociceptive thresholds, contralateral side of the operated rats / mechanical allodynia (decrease of withdrawal threshold vs initial control) after drug injection / change of the mechanonociceptive thresholds, sham-operated group: 20 mg/kg i.p.; for inhibitory effect on mechanical allodynia / mechanical allodynia (decrease of withdrawal threshold vs initial control) after drug injection: operated limb; for inhibitory effect on mechanical allodynia: day 7, 20 mg/kg i.p., post- vs pre-injection; for mechanical allodynia (decrease of withdrawal threshold vs initial control) after drug injection: day 7 after nerve ligation, 15 min after administration, mean±s.e.m.; for change of the mechanonociceptive thresholds, sham-operated group: sham-operated rats. How it is done:
as §2
(§3) Sciatic nerve ligation-induced traumatic mononeuropathy experiments were performed on male Wistar rats (250-300 g), and on male C57Bl/6 mice as well as resiniferatoxin- or formalin-induced hyperalgesia. The original breeding pairs of the animals were purchased from Charles River Ltd. All the animals were kept in the Animal Facility of the Department of Pharmacology and Pharmacotherapy at the University of Pécs at 24-25° C. provided with standard chow and water ad libitum.
Before all experiments one conditioning and three reliable control threshold measurements were performed on three consecutive days. All operations were performed by the same operator, who was blinded to the animal group assignments and the treatment allocation (FIG. 1A for the rat, B for the mouse experimental paradigm).
as §1
Mice were anaesthesized with a combination of ketamine and xylazine (100 mg/kg and 5 mg/kg i.p. respectively), but in rats Na-pentobarbital (40 mg/kg i.p) were used. The common sciatic nerve was exposed unilaterally on the right side high in the thigh and ⅓-½ of the nerve trunk was carefully separated and tightly ligated using a siliconised silk suture (Ethicone 5-0 and 8.0, respectively). Then the wound was closed and the animals were allowed to survive for 8 days (Seltzer, 1990; Malmberg and Basbaum 1998; Bolcskei et al. 2005; Sandor et al. 2010). During this period, signs of spontaneous pain (holding the legs in elevated position transiently for 2-3 days) and mechanical hyperalgesia and cold allodynia developed. In order to investigated the efficacy of these drugs we examined the drop of the mechanical touch sensitivity on Day 3, however the decrease of the mechanical threshold develops fully 7 days after the surgery.
The mechanical touch sensitivity thresholds of the plantar surface of the paws was determined by aesthesiometry (Ugo Basile Dynamic Plantar Aesthesiometer 37400; Comerio, Italy). This is an electronic von Frey device, in which the animals moved about freely in one of the compartments of the enclosure positioned on the metal mesh surface. Following acclimation after cessation of exploratory behaviour, the touch stimulator unit was placed under the animal's paw, using the adjustable angled-mirror to position the filament below the target area of the plantar surface. Then an electrodynamic actuator of proprietary design lifted a straight metal filament, which touched the plantar surface and began to exert an increasing upward force at a preset rate of application until a stop signal (removal of the paw) was attained. The paw withdrawal threshold was obtained in grams. […]

The test system of test [4] is formalin-induced acute nocifensive behaviours and hyperalgesia. The experiment in a line: Formalin-induced acute nocifensive behaviour and hyperalgesia in mice. It is filed as in vivo, male C57Bl/6 mice. Conditions: mouse. How it is done:
as §2
Sciatic nerve ligation-induced traumatic mononeuropathy experiments were performed on male Wistar rats (250-300 g), and on male C57Bl/6 mice as well as resiniferatoxin- or formalin-induced hyperalgesia. The original breeding pairs of the animals were purchased from Charles River Ltd. All the animals were kept in the Animal Facility of the Department of Pharmacology and Pharmacotherapy at the University of Pécs at 24-25° C. provided with standard chow and water ad libitum. […]
The noxious heat threshold of the paw, defined as the lowest temperature evoking nocifensive behaviour—was measured with an increasing-temperature hot plate (IITC Life Science, Woodland Hills, Calif., USA). […]
The total duration of paw licking and lifting were expressed to representing the nociceptive behaviour. […] Mechanical hyperalgesia values were determined as % by comparing the nociceptive thresholds measured at 2 and 4 hours after the application to the initial threshold values. Results are expressed as means±s.e.m. of the thermo- and mechanonociceptive threshold changes of n=11-11 animals/groups. Data were analysed with One-way ANOVA following Bonferroni's post-test in comparison to determine differences between the pre- and post-injection values of the respective groups.

Another test deals with RTX-induced hyperalgesia. The experiment in a line: Resiniferatoxin-evoked thermal and mechanical hyperalgesia in mice. It is filed as in vivo, male C57Bl/6 mice. Conditions: mouse; for drop of mechanonociceptive threshold after RTX at 2 hours: solvent group 47.1±6%; for acute neurogenic inflammatory heat allodynia: only significant in case of SZV-1287 after RTX. How it is done:
as §2, §3
The mechanical touch sensitivity thresholds of the plantar surface of the paws was determined by aesthesiometry (Ugo Basile Dynamic Plantar Aesthesiometer 37400; Comerio, Italy). This is an electronic von Frey device, in which the animals moved about freely in one of the compartments of the enclosure positioned on the metal mesh surface. Following acclimation after cessation of exploratory behaviour, the touch stimulator unit was placed under the animal's paw, using the adjustable angled-mirror to position the filament below the target area of the plantar surface. Then an electrodynamic actuator of proprietary design lifted a straight metal filament, which touched the plantar surface and began to exert an increasing upward force at a preset rate of application until a stop signal (removal of the paw) was attained. The paw withdrawal threshold was obtained in grams. Hyperalgesia or allodynia (decrease of the withdrawal thresholds) was expressed as percentage by comparing the data of each individual animal to the averaged three initial control thresholds.
Resiniferatoxin (RTX) is a potent agonist of Transient Receptor Potential Vanilloid 1 (TRPV1) receptors, which are mainly expressed on capsicin-sensitive sensory nerve ending. Intraplantarly (i.pl.) injection of RTX (0.03 μg/ml; 20 μl) into one of the hindpaws induced an acute inflammation and a robust drop of heat and mechanical thresholds.
The noxious heat threshold of the paw, defined as the lowest temperature evoking nocifensive behaviour—was measured with an increasing-temperature hot plate (IITC Life Science, Woodland Hills, Calif., USA). After habituation, mice were placed onto the plate, which was then heated up from room temperature at a rate of 12° C./min until the animals showing nocifensive behaviour (licking, lifting or shaking one of the hindpaws). The corresponding plate temperature was considered as the noxious heat threshold.
Lines represent thermal and mechanical hyperalgesia before drug injection and 5, 10, 15, 20 min as well as 2, 4, 6, 24 hours, respectively after compound/solvent administration. Results are expressed as means±s.e.m. of the thermo- and mechanonociceptive threshold changes of n=7-8 per groups. Data were analysed with Two-way ANOVA following Bonferroni's post-test in comparison to determine differences between the pre- and post-injection values of the respective groups **p<0.01, *** p<0.001 SZV-1287 vs. saline and ### p<0.001 SZV-1911 vs. saline.

Entries after “also recorded” stand apart in the source; their conditions may differ.

Turning to `ON=CCCc1nc(-c2ccccc2)c(-c2ccccc2)o1` [SZV-1287, 3-(4,5-diphenyl-1,3-oxazol-2-yl)propanal oxime], the “neuropathic cold hyperalgesia (cold allodynia, paw withdrawal latency)” value in test [1] is on record as “did not influence”. Moreover, in test [2], the “sciatic nerve ligation-induced neuropathic mechanical hyperalgesia” value is on record as “significantly decreased”. Further, in test [3], the “change of the mechanonociceptive thresholds, contralateral side of the operated rats” value is reported as “No change”; the “inhibitory effect on mechanical allodynia” value is given as “approximately 30%”; the “mechanical allodynia (decrease of withdrawal threshold vs initial control) after drug injection” value turned out to be 34.6±7.6%; the “change of the mechanonociceptive thresholds, sham-operated group” value was “No change”. Moreover, the “thermonociceptive threshold after formalin application” value in test [4] (1 hour, basal 44.8±1.7° C., saline treated mice 37.4±3° C.) was determined as 37.5±4 °C. The “nocifensive behaviour (total duration of paw lickings and liftings), early phase” value in test [4] (formalin i.pl., early phase (0-5 min), vs saline) is listed as “significantly lower”. Moreover, the “nocifensive behaviour (total duration of paw lickings and liftings), late phase” value in test [4] (formalin i.pl., late phase (20-45 min), vs saline) is reported as “significantly lower”. In addition, the “drop of mechanonociceptive threshold after RTX at 2 hours” value in the test with RTX-induced hyperalgesia (20 mg/kg i.p. pretreatment) was determined as 22.1±7%. For the same compound, the “drop of heat threshold after intraplantar RTX” value with RTX-induced hyperalgesia (20 mg/kg i.p. pretreatment, maintained during 15 minutes, solvent group approx. 8 degree) is 1-2 °C. The “acute neurogenic inflammatory heat allodynia” value in the test on RTX-induced hyperalgesia is reported as “moderately decreased”.
On to `C=C(CNN)c1ccccc1` [SZV-1911, (2-phenyl-2-propen-1-yl)hydrazine], for which the “neuropathic cold hyperalgesia (cold allodynia, paw withdrawal latency)” value in test [1] is recorded as “did not influence”. In addition, in test [2] (20 mg/kg), the “sciatic nerve ligation-induced neuropathic mechanical hyperalgesia” value is given as “significantly diminished; also recorded: significantly decreased”. Also, in test [3], the “change of the mechanonociceptive thresholds, contralateral side of the operated rats” value is reported as “No change”; the “inhibitory effect on mechanical allodynia” value is given as “approximately 30%”; the “mechanical allodynia (decrease of withdrawal threshold vs initial control) after drug injection” value came out at 32.9±3.4%; the “change of the mechanonociceptive thresholds, sham-operated group” value is reported as “No change”. In the test on RTX-induced hyperalgesia (20 mg/kg i.p. pretreatment), the “drop of mechanonociceptive threshold after RTX at 2 hours” value stood at 14.7±6%. For the same compound, in the test on RTX-induced hyperalgesia (20 mg/kg i.p. pretreatment, 4 hours, solvent group 35.3±3%), the “change of mechanonociceptive threshold after RTX at 4 hours” value came out at 6.5±6%. Further, the “acute neurogenic inflammatory heat allodynia” value with RTX-induced hyperalgesia is recorded as “moderately decreased”.

The record behind these values is patent US9790193B2, “Semicarbazide-sensitive amine oxidase inhibitors for use as analgesics in traumatic neuropathy and neurogenic inflammation” (PÉCSI TUDOMÁNYEGYETEM, priority 2014, dated 2017).
